Tests used:
[1] = molecular target: Hepatocyte growth factor receptor (Homo sapiens) (UniProt P08581); assay: Inhibition of human MET cytoplasmic domain expressed in baculovirus assessed as substrate phosphorylation using fluorescence-labelled peptides as substrate at 0.06 uM after 90 mins by microfluidic peptide phosphorylation assay
[2] = molecular target: Mitogen-activated protein kinase 3 (Homo sapiens) (UniProt P27361); assay: Inhibition of human full length ERK1 expressed in Escherichia coli cell assessed as substrate phosphorylation using fluorescence-labelled peptides as substrate at 0.06 uM after 90 mins by microfluidic peptide phosphorylation assay
[3] = molecular target: Ribosomal protein S6 kinase alpha-1 (Homo sapiens) (UniProt Q15418); assay: Inhibition of human full length RSK1 expressed in baculovirus assessed as substrate phosphorylation using fluorescence-labelled peptides as substrate at 420 uM after 90 mins by microfluidic peptide phosphorylation assay
Sequence of Ribosomal protein S6 kinase alpha-1 (Homo sapiens) (Q15418 whole entry, the tested form may be a part): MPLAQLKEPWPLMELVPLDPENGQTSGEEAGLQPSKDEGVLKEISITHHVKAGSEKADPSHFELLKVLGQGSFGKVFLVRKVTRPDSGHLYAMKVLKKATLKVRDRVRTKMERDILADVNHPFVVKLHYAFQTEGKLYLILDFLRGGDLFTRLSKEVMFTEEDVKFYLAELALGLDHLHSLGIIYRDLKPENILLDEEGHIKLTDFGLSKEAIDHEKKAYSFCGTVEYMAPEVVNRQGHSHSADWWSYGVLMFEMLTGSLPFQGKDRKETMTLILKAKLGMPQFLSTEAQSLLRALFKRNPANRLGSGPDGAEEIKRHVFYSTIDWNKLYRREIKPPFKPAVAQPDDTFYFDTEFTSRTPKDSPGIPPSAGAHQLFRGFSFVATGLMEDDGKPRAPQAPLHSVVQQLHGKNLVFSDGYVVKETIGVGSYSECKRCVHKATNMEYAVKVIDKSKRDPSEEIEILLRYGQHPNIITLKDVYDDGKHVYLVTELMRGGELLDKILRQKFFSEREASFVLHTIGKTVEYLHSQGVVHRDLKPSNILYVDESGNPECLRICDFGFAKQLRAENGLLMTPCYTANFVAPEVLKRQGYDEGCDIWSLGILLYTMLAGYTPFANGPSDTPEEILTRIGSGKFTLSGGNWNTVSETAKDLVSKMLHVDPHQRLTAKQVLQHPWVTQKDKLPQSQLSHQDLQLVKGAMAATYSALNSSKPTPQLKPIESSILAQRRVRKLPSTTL

[4] = molecular target: Fibroblast growth factor receptor 3 (Homo sapiens) (UniProt P22607); assay: Inhibition of human FGFR3 catalytic domain expressed in baculovirus assessed as substrate phosphorylation using fluorescence-labelled peptides as substrate at 420 uM after 90 mins by microfluidic peptide phosphorylation assay
Sequence of Fibroblast growth factor receptor 3 (Homo sapiens) (P22607 23-806 limits assumed): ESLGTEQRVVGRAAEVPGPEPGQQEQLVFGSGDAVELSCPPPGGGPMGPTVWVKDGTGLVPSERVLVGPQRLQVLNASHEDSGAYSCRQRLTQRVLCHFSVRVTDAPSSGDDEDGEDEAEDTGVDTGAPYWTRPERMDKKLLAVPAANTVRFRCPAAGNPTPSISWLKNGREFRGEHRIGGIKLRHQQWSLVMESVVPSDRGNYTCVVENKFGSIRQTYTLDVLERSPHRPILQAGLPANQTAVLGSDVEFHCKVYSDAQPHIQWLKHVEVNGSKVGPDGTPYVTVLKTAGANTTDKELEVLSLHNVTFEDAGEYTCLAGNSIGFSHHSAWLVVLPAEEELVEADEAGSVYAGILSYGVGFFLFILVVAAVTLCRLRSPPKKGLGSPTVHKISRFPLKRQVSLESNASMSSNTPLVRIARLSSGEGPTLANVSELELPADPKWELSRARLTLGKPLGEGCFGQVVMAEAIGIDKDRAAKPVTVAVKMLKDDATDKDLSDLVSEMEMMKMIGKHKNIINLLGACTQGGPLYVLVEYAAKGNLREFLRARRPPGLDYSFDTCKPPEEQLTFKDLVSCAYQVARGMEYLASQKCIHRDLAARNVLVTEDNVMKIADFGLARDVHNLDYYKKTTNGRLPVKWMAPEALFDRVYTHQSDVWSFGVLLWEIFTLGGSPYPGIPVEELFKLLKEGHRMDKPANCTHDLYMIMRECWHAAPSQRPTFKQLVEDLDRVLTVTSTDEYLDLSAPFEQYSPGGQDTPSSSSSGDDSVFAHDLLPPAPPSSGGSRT

[5] = molecular target: Ribosomal protein S6 kinase alpha-3 (Homo sapiens) (UniProt P51812); assay: Inhibition of human full length RSK2 expressed in baculovirus assessed as substrate phosphorylation using fluorescence-labelled peptides as substrate at 0.1 uM after 90 mins by microfluidic peptide phosphorylation assay
Sequence of Ribosomal protein S6 kinase alpha-3 (Homo sapiens) (P51812 whole entry): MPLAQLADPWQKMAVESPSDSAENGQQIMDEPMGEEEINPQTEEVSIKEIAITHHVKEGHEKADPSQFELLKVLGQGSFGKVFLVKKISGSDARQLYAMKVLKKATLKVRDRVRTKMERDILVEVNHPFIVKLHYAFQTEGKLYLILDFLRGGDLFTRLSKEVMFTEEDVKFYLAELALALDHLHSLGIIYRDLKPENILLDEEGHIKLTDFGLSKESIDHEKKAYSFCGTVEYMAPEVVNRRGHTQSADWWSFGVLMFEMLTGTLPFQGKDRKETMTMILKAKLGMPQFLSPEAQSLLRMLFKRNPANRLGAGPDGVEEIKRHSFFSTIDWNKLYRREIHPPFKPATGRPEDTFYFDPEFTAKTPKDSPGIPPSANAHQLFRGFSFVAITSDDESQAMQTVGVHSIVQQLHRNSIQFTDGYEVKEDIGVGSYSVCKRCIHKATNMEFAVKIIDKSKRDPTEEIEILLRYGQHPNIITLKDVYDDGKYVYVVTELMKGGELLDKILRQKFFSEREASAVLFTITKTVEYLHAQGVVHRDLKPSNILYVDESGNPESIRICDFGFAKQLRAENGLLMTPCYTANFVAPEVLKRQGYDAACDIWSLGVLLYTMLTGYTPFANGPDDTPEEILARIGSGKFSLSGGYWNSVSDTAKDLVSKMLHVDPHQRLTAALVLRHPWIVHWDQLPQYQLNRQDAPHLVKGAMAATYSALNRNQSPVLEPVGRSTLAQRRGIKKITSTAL

[6] = molecular target: T1, Aurora kinase A (Homo sapiens) (UniProt O14965); assay: Inhibition of human full length AurA expressed in baculovirus assessed as substrate phosphorylation using fluorescence-labelled peptides as substrate at 95 uM after 90 mins by microfluidic peptide phosphorylation assay
T1 sequence (whole entry): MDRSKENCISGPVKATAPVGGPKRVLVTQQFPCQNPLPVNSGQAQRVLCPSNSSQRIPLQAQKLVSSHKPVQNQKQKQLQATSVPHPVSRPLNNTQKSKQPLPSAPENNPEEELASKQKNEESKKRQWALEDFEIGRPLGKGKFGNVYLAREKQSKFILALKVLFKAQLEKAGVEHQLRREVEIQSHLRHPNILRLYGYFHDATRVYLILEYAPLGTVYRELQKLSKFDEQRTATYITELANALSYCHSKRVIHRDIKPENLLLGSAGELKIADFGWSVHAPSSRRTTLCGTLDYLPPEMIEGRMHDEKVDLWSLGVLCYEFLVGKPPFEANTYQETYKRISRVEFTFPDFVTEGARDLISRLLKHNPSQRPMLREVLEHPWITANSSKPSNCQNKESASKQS

[7] = molecular target: Serine/threonine-protein kinase pim-1 (Homo sapiens) (UniProt P11309); assay: Inhibition of human full length PIM1 expressed in baculovirus assessed as substrate phosphorylation using fluorescence-labelled peptides as substrate at 95 uM after 90 mins by microfluidic peptide phosphorylation assay
Sequence of Serine/threonine-protein kinase pim-1 (Homo sapiens) (P11309 whole entry, looked up, the tested form may be a part): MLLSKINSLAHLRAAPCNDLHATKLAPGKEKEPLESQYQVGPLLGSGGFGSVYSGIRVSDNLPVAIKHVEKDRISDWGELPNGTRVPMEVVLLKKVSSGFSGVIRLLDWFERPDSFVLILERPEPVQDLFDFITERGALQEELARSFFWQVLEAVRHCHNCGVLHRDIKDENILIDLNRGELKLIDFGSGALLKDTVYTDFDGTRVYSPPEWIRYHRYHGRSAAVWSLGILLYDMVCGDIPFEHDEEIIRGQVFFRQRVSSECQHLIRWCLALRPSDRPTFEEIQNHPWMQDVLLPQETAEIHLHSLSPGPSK

[8] = molecular target: Fibroblast growth factor receptor 3 (Homo sapiens) (UniProt P22607); assay: Inhibition of human FGFR3 catalytic domain expressed in baculovirus assessed as substrate phosphorylation using fluorescence-labelled peptides as substrate at 95 uM after 90 mins by microfluidic peptide phosphorylation assay
[9] = molecular target: MAP/microtubule affinity-regulating kinase 3 (Homo sapiens) (UniProt P27448); assay: Inhibition of human full length c-TAK1 expressed in Escherichia coli cell assessed as substrate phosphorylation using fluorescence-labelled peptides as substrate at 8 uM after 90 mins by microfluidic peptide phosphorylation assay
Sequence of MAP/microtubule affinity-regulating kinase 3 (Homo sapiens) (P27448 whole entry, looked up): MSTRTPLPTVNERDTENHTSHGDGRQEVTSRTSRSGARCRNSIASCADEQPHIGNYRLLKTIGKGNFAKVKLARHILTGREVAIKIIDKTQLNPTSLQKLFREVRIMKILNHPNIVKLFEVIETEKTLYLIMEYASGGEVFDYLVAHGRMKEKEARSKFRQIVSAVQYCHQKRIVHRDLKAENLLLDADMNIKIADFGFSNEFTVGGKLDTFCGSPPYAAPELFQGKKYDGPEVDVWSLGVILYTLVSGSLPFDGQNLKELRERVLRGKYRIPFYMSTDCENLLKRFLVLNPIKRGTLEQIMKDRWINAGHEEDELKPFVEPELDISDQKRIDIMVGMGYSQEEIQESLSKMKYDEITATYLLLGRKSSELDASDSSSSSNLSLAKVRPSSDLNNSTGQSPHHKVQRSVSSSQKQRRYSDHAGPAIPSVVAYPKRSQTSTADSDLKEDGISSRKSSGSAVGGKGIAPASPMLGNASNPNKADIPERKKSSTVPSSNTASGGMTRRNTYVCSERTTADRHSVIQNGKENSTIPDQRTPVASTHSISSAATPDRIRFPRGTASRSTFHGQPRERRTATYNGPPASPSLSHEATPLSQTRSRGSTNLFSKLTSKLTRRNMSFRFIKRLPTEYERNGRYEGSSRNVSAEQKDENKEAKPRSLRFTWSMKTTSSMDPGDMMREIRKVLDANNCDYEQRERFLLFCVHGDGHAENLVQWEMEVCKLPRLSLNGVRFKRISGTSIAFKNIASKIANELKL

[10] = molecular target: Ribosomal protein S6 kinase alpha-3 (Homo sapiens) (UniProt P51812); assay: Inhibition of human full length RSK2 expressed in baculovirus assessed as substrate phosphorylation using fluorescence-labelled peptides as substrate at 8 uM after 90 mins by microfluidic peptide phosphorylation assay
[11] = molecular target: T2, Cytoplasmic tyrosine-protein kinase BMX (Homo sapiens) (UniProt P51813); assay: Inhibition of human full length BMX expressed in baculovirus assessed as substrate phosphorylation using fluorescence-labelled peptides as substrate at 1000 uM after 90 mins by microfluidic peptide phosphorylation assay
T2 sequence (whole entry): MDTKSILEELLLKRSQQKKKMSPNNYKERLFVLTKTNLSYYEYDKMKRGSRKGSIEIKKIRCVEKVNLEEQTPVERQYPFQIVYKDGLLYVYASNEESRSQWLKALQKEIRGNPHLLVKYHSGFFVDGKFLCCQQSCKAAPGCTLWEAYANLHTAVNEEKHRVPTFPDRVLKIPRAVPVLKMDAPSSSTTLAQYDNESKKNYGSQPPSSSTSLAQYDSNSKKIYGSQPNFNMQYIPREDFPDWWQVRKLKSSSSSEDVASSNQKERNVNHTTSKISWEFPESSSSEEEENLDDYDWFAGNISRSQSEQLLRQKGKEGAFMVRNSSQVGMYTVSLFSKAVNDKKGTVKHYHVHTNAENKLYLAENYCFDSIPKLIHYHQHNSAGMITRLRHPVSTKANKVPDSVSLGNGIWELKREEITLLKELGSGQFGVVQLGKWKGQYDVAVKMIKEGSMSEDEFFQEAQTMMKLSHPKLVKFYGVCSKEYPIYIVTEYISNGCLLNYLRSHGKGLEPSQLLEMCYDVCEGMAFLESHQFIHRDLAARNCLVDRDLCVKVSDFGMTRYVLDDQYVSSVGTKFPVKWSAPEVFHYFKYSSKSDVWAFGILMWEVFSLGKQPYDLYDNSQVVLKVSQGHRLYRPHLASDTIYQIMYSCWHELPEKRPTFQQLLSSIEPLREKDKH

[12] = molecular target: Rho-associated protein kinase 2 (Homo sapiens) (UniProt O75116); assay: Inhibition of human ROCK2 catalytic domain expressed in baculovirus assessed as substrate phosphorylation using fluorescence-labelled peptides as substrate at 2 uM after 90 mins by microfluidic peptide phosphorylation assay
Sequence of Rho-associated protein kinase 2 (Homo sapiens) (O75116 whole entry, looked up, the tested form may be a part): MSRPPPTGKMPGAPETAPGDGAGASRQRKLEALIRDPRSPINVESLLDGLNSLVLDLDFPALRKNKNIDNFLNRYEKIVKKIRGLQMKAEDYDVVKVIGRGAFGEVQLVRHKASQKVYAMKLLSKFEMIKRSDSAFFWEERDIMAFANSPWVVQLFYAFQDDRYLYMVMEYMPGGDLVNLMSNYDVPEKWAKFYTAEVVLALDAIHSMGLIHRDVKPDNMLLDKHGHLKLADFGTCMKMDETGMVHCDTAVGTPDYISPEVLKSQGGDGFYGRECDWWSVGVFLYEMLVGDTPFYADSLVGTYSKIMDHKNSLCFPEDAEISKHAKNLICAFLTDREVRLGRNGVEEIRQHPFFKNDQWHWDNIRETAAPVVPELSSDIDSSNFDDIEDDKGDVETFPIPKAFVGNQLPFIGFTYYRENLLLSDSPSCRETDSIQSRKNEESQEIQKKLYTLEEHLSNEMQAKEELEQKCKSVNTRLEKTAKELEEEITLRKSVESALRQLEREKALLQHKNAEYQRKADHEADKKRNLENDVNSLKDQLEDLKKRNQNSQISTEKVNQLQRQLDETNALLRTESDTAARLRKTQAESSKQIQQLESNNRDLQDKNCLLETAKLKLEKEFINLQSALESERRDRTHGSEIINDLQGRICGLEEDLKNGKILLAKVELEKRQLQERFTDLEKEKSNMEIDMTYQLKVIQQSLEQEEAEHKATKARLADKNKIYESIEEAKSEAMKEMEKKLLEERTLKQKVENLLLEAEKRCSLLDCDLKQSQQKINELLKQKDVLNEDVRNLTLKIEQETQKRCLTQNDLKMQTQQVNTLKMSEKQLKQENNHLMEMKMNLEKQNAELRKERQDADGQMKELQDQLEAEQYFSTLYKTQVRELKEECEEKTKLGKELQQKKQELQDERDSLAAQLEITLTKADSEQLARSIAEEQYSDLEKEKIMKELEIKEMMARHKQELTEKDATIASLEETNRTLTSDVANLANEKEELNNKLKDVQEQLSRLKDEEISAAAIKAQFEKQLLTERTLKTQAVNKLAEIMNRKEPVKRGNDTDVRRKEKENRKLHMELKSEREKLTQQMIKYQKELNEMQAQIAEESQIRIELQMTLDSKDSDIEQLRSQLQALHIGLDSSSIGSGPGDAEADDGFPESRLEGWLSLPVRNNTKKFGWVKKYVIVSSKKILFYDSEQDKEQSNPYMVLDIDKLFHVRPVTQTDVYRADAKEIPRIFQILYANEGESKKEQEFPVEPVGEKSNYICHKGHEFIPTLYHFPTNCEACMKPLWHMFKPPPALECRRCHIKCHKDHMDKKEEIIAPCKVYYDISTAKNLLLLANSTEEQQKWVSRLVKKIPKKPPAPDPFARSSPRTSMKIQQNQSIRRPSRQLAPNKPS

What does the source list for `NC1(Cc2ccc(Cl)cc2)CCN(c2ncnc3[nH]ccc23)CC1`?
inhibition [1]: 0%; inhibition [2]: 0%

How did the inhibition [3] turn out when `c1nc(N2CCOCC2)c2nc[nH]c2n1` was run?
The inhibition was 87%.

What about the inhibition [4] of the same compound?
The inhibition was 95%.

With `C[C@H](CN(C)C)Oc1nc(Nc2cc3cccc(Cl)c3cn2)cnc1C#N` as the compound, how does the inhibition [5] read?
Its inhibition is 59.5%.

Which results are given for `NCCc1ccc(-c2ncnc3[nH]cnc23)cc1`?
inhibition [6]: 85%; inhibition [7]: 42.5%; inhibition [8]: 27%

How did the inhibition [9] turn out when `NCC1CCN(c2ncnc3[nH]ccc23)CC1` was run?
Its inhibition is 3%.

And the inhibition [10]?
The inhibition was 32%.

How did the inhibition [11] turn out when `c1cnc2[nH]ccc2c1` was run?
The inhibition was 22%.

For `NC1CCN(c2ncnc3[nH]ccc23)CC1`, which inhibition [12] is on record?
Its inhibition is 44%.

Source: ChEMBL document CHEMBL3132769, “Fragment growing to retain or alter the selectivity of anchored kinase hinge-binding fragments” (Medchemcomm, 2014)
